The results in this text go back to US7741325B2, “Benzo[b]chromeno-naphthyridin-7-one and pyrano[2′,3′:7,8]quino[2,3-b]quinoxalin-7-one compounds” (priority 2004, dated 2010).

Series [1] concerns KB-3-1. In words: In vitro cytotoxicity, tetrazolium microculture assay, KB-3-1. It counts as cell-based. Particulars: 96 h; KB-3-1 human epidermoid carcinoma, incubated for 4 days; read-out: IC50, the concentration of cytotoxic compound that inhibits the proliferation of the treated cells by 50%. Here is the method: (§1) Two cell lines were used: • 1 murine leukaemia, L1210, • 1 human epidermoid carcinoma: KB-3-1
(§2) The cells are cultured in RPMI 1640 complete culture medium comprising 10% fcetal calf serum, 2 mM glutamine, 50 units/ml of penicillin, 50 μg/ml of streptomycin and 10 mM Hepes, pH 7.4. The cells are distributed on microplates and are exposed to the cytotoxic compounds. The cells are then incubated for 2 days (L1210) or 4 days (KB-3-1) in an incubator at 37° C. in the presence of 5% CO2. The number of viable cells is then quantified by a colorimetric assay, the tetrazolium microculture assay (Cancer Res. 1987, 47, 939-942).
(§3) The results are expressed as IC50, the concentration of cytotoxic compound that inhibits the proliferation of the treated cells by 50%.

Series [2] relates to L1210. In words: In vitro cytotoxicity, tetrazolium microculture assay, L1210. It counts as cell-based. The following applies: Mus musculus, 48 h; L1210 murine leukaemia, incubated for 2 days; read-out: IC50, the concentration of cytotoxic compound that inhibits the proliferation of the treated cells by 50%. How it is done: as §1, §2, §3

Consider `COc1cc2c(c3c1c(=O)c1cc4ccccc4nc1n3C)[C@@H](O)[C@@H](O)C(C)(C)O2` (racemic) [Example 3, (±)-cis-1,2-Dihydroxy-6-methoxy-3,3,14-trimethyl-1,2,3,14-tetrahydro-7H-benzo[b]chromeno[6,5-g][1,8]naphthyridin-7-one], for which the melting point (in general, the temperature of the solid-liquid transition) was determined as 298 °C.

As for `COc1cc2c(c3c1c(=O)c1cc4ccccc4nc1n3C)[C@@H](OC(C)=O)[C@@H](OC(C)=O)C(C)(C)O2` (racemic) [Example 4, (±)-cis-1,2-Diacetoxy-6methoxy-3,3,14-trimethyl-1,2,3,14-tetrahydro-7H-benzo[b]chromeno[6,5-g][1,8]naphthyridin-7-one], the melting point amounted to 244 °C. Besides, the IC50 in series [1] was 37 nM. Moreover, the IC50 in series [2] was 320 nM. The compound `COc1cc2c(c3c1c(=O)c1cc4ccccc4nc1n3C)[C@H]1OC(=O)O[C@H]1C(C)(C)O2` (racemic) [Example 5, (±)-cis-7-Methoxy-4,4,15-trimethyl-15,15c-dihydro-4H-benzo[b][1,3]-dioxolo[4′,5′:3,4]chromeno[6,5-g][1,8]naphthyridin-2,8[3aH]-dione] registered a melting point of 234 °C. `Cn1c2nc3ccccc3cc2c(=O)c2c(O)cc3c(c21)C=CC(C)(C)O3` [Example 1, 6-Hydroxy-3,3,14-trimethyl-3,14-dihydro-7H-benzo-[b]chromeno-[6,5-g][1,8]naphthyridin-7-one] gave a melting point of 278 °C.

`COc1cc2c(c3c1c(=O)c1cc4ccccc4nc1n3C)C=CC(C)(C)O2` [Example 2, 6-Methoxy-3,3,14-trimethyl-3,14-dihydro-7H-benzo[b]chromeno-[6,5-g][1,8]naphthyridin-7-one] displayed a melting point of 270 °C.
